Consider nine compounds from patent publication US20230139171A1 (SITA Information Networking Computing UK Limited, priority 2019, published 2023).

Bounds are passed on as bounds.

What all share (type): cell-based
Test [1] has as its target T1, human TLR7 (Homo sapiens, UniProt Q9NYK1).
T1 construct: host or cells: HEK-Blue cells
T1 sequence (Q9NYK1 27-1049): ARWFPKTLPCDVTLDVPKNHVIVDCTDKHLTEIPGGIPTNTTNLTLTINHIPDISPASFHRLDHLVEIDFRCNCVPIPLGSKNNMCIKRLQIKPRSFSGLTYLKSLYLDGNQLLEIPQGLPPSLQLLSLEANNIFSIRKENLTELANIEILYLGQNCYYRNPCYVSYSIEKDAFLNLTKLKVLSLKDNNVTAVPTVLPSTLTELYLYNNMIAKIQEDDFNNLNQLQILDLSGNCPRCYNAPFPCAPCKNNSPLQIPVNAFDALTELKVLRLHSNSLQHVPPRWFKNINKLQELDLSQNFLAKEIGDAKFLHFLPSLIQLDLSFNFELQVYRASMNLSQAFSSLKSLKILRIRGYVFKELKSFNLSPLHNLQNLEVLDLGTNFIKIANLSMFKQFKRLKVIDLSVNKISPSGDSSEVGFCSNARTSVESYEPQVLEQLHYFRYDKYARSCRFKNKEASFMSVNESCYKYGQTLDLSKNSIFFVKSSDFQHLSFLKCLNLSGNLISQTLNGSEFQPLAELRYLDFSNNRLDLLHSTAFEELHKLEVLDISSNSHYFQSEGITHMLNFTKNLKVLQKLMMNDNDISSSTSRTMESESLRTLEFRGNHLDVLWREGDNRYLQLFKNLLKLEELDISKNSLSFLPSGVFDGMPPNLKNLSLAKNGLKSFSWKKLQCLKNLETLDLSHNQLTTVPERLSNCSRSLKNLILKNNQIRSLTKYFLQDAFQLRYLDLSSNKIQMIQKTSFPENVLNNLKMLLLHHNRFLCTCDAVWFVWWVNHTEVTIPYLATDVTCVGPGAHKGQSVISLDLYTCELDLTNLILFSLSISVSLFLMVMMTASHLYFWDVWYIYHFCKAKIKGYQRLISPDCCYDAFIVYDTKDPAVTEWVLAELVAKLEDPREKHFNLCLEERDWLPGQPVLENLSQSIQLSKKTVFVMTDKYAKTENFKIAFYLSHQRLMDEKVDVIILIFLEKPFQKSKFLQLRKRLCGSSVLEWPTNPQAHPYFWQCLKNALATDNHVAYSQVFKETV
Put plainly: TLR7 inhibition reporter assay (HEK-Blue cells, SEAP reporter, gardiquimod stimulation). Conditions: HEK-Blue cells overexpressing human TLR7, SEAP reporter, gardiquimod 7.5 μM; read-out: TLR7 IC50. The procedure, abridged:
(§1)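 Screening used HEK-Blue cells overexpressing one human TLR (7, 8 or 9) and an IFN-β minimal promoter–NF-κB/AP-1 SEAP construct. Stimulation lasted 22 h at 37 °C with receptor-specific agonist: gardiquimod, R848 or ODN2006 at 7.5 μM, 15.9 μM and 5 nM.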

Test [2] addresses T2, human TLR8 (Homo sapiens, UniProt Q9NR97).
T2 construct: host or cells: HEK-Blue cells
T2 sequence (Q9NR97 27-1041): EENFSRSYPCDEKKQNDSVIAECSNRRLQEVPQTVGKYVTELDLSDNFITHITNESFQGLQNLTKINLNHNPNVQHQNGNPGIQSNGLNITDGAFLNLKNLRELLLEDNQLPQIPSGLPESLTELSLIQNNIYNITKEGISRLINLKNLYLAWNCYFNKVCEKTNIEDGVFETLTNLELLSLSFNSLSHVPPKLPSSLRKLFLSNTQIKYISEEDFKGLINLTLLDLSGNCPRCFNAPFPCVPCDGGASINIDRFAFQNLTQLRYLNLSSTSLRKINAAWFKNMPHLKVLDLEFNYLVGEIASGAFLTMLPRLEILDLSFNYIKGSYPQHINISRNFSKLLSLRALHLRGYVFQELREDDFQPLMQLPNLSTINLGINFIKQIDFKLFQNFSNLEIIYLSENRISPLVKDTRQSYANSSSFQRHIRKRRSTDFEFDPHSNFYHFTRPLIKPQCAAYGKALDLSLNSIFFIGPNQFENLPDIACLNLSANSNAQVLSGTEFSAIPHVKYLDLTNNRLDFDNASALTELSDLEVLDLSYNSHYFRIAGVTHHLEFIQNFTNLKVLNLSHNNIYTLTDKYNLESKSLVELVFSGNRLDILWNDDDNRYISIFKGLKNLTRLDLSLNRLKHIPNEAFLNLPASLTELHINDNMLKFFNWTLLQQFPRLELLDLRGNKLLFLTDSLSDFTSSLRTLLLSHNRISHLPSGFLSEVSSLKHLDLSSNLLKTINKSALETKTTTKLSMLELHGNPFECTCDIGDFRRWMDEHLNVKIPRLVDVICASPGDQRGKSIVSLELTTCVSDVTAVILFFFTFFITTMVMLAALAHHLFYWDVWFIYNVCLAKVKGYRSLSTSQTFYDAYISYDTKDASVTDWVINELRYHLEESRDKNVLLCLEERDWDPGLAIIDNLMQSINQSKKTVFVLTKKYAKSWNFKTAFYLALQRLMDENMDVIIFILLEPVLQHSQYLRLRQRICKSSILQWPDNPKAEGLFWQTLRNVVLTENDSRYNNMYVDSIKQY
Description: TLR8 inhibition reporter assay (HEK-Blue cells, SEAP reporter, R848 stimulation). Conditions: HEK-Blue cells overexpressing human TLR8, SEAP reporter, R848 15.9 μM; read-out: TLR8 IC50. The procedure, abridged:
as §1
A general note: In a reporter assay the amount or activity of a reporter protein is the signal.

Test [3] has as its target T3, human TLR9 (Homo sapiens, UniProt Q9NR96).
T3 construct: host or cells: HEK-Blue cells
T3 sequence (Q9NR96 26-1032): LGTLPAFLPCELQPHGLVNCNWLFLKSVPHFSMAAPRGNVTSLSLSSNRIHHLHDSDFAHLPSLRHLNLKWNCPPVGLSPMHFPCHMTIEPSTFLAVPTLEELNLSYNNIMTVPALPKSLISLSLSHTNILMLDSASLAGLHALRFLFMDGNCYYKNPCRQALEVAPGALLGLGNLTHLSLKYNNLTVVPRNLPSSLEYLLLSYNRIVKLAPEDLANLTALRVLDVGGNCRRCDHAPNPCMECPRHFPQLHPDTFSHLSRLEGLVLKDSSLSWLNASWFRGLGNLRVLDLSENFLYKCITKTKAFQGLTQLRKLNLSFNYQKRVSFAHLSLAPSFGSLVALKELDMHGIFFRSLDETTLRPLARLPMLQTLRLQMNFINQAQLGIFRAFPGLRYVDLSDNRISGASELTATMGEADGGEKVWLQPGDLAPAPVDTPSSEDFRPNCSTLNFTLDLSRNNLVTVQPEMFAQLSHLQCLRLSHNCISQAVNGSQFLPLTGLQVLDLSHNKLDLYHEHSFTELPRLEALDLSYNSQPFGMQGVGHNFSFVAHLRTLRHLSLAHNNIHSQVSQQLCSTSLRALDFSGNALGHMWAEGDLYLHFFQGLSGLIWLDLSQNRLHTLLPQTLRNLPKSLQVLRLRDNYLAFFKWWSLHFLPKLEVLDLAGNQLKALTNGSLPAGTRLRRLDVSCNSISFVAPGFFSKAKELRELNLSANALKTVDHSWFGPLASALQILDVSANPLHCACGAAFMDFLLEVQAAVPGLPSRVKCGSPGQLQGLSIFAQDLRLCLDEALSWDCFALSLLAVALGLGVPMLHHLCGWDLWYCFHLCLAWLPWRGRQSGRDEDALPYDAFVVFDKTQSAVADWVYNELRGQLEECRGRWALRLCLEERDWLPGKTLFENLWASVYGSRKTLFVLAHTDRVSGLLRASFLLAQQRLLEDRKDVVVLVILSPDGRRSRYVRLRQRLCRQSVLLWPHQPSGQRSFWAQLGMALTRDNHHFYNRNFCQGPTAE
Description: TLR9 inhibition reporter assay (HEK-Blue cells, SEAP reporter, ODN2006 stimulation). Conditions: HEK-Blue cells overexpressing human TLR9, SEAP reporter, ODN2006 5 nM. The method, then: TLR7/8/9 Inhibition Reporter Assays
HEK-Blue™-cells (Invivogen) overexpressing human TLR7, TLR8 or TLR9 receptors were used for screening inhibitors of these receptors using an inducible SEAP (secreted embryonic alkaline phosphatase) reporter gene under the control of the IFN-β minimal promoter fused to five NF-κB and AP-1-binding sites. Briefly, cells are seeded into Greiner 384 well plates (15000 cells per well for TLR7, 20,000 for TLR8 and 25,000 for TLR9) and then treated with test compounds in DMSO to yield a final dose response concentration range of 0.05 nM-50 μM. After a 30 minute compound pre-treatment at room temperature, the cells are then stimulated with a TLR7 ligand (gardiquimod at a final concentration of 7.5 μM), TLR8 ligand (R848 at a final concentration of 15.9 μM) or TLR9 ligand (ODN2006 at a final concentration of 5 nM) to activate NF-κB and AP-1 which induce the production of SEAP. After a 22 hour incubation at 37° C., 5% CO2, SEAP levels are determined with the addition of HEK-Blue™ Detection reagent (Invivogen), a cell culture medium that allows for detection of SEAP, according to manufacturer's specifications. The percent inhibition is determined as the % reduction in the HEK-Blue signal present in wells treated with agonist plus DMSO alone compared to wells treated with a known inhibitor.

Usually IC50 stands for the concentration that inhibits the measured activity by half. Turning to `CCN(C)C1CCC(c2nc3c(C(C)C)c(-c4cc(OC)c5ncnn5c4)[nH]c3s2)CC1` (single isomer, unassigned) [Example 72, N-ethyl-4-(6-isopropyl-5-(8-methoxy-[1,2,4]triazolo[1,5-a]pyridin-6-yl)-4H-pyrrolo[3,2-d]thiazol-2-yl)-N-methylcyclohexan-1-amine], the IC50 is 1.23 nM in test [1], 4.75 nM in test [2] and 7220 nM in test [3].
As for `CCN(C)C1CCC(c2nc3c(C(C)C)c(-c4cc(OC)c5ncnn5c4)[nH]c3s2)CC1` (single isomer, unassigned) [Example 73, N-ethyl-4-(6-isopropyl-5-(8-methoxy-[1,2,4]triazolo[1,5-a]pyridin-6-yl)-4H-pyrrolo[3,2-d]thiazol-2-yl)-N-methylcyclohexan-1-amine], the IC50 in test [1] was found to be 0.96 nM; in test [2], 12.7 nM; in test [3], 4280 nM.
Take `CNC1CCC(c2nc3c(C(C)C)c(-c4cc(OC)c5ncnn5c4)[nH]c3s2)CC1` (single isomer, unassigned) [Example 74, 4-(6-isopropyl-5-(8-methoxy-[1,2,4]triazolo[1,5-a]pyridin-6-yl)-4H-pyrrolo[3,2-d]thiazol-2-yl)-N-methylcyclohexan-1-amine]: the half-inhibitory concentration (IC50) in test [1] was determined as 0.71 nM; in test [2], 3.44 nM; in test [3], 1910 nM.
The like results for `CNC1CCC(c2nc3c(C(C)C)c(-c4cc(OC)c5ncnn5c4)[nH]c3s2)CC1` (single isomer, unassigned) [Example 75, 4-(6-isopropyl-5-(8-methoxy-[1,2,4]triazolo[1,5-a]pyridin-6-yl)-4H-pyrrolo[3,2-d]thiazol-2-yl)-N-methylcyclohexan-1-amine] were, in that order, 0.89 nM, 7.55 nM and 3390 nM.
For `COc1cc(-c2[nH]c3sc(C4CCC(N5CCC5)CC4)nc3c2C(C)C)cn2ncnc12` (single isomer, unassigned) [Example 76, 2-(4-(azetidin-1-yl)cyclohexyl)-6-isopropyl-5-(8-methoxy-[1,2,4]triazolo[1,5-a]pyridin-6-yl)-4H-pyrrolo[3,2-d]thiazole], the IC50 in test [1] amounted to 0.9 nM; in test [2] it was 2.62 nM; in test [3] it was 1450 nM.
In the case of `COc1cc(-c2[nH]c3sc(C4CCC(N5CCC5)CC4)nc3c2C(C)C)cn2ncnc12` (single isomer, unassigned) [Example 77, 2-(4-(azetidin-1-yl)cyclohexyl)-6-isopropyl-5-(8-methoxy-[1,2,4]triazolo[1,5-a]pyridin-6-yl)-4H-pyrrolo[3,2-d]thiazole], the IC50 in test [1] came out at 2.03 nM; in test [2], 21.5 nM; in test [3], 3270 nM.
For `COc1cc(-c2[nH]c3sc(C4CCC(NC(C)C)CC4)nc3c2C(C)C)cn2ncnc12` (single isomer, unassigned) [Example 78, N-isopropyl-4-(6-isopropyl-5-(8-methoxy-[1,2,4]triazolo[1,5-a]pyridin-6-yl)-4H-pyrrolo[3,2-d]thiazol-2-yl)cyclohexan-1-amine], the IC50 is 0.59 nM in test [1], 1.64 nM in test [2] and 2870 nM in test [3].
Take `COc1cc(-c2[nH]c3sc(C4CCC(NC(C)C)CC4)nc3c2C(C)C)cn2ncnc12` (single isomer, unassigned) [Example 79, N-isopropyl-4-(6-isopropyl-5-(8-methoxy-[1,2,4]triazolo[1,5-a]pyridin-6-yl)-4H-pyrrolo[3,2-d]thiazol-2-yl)cyclohexan-1-amine]: the IC50 was determined as 2.29 nM in test [1], 9.23 nM in test [2] and 4120 nM in test [3].
Take `COc1cc(-c2[nH]c3sc(C4CCC(N5CCS(=O)(=O)CC5)CC4)nc3c2C(C)C)cn2ncnc12` (single isomer, unassigned) [Example 82, 4-(4-(6-isopropyl-5-(8-methoxy-[1,2,4]triazolo[1,5-a]pyridin-6-yl)-4H-pyrrolo[3,2-d]thiazol-2-yl)cyclohexyl)thiomorpholine 1,1-dioxide]: the results for the IC50 in test [1], in test [2] and in test [3] were 4.69 nM, 43.6 nM and above 50000 nM, respectively.
